Patent US9920295B2, “Bioreactor for isolation of rare cells and methods of use” (The Trustees of the University of Pennsylvania, priority 2012, dated 2018)
Like-named read-outs stand apart in the source and are kept apart here.

Experiments:
NMM-IIA = target: T1, NMM-IIA (Homo sapiens, UniProt P35579); assay: NMM-IIA phosphorylation in THP-1 cells (IP, MS, flow cytometry); format: cell-based
T1 construct: endogenous in cells; host or cells: THP-1 cells
Description: In general, cells were washed with ice-cold PBS and lysed on ice with lysis buffer (150 mM sodium chloride, 1% Nonidet P-40, 1% protease inhibitor mixture, 1 mM activated sodium orthovanadate, 50 mM Tris at pH 8.0) for 30 min. For immunoprecipitation (IP), 30 mM of pervanadate solution was prepared by mixing sodium orthovanadate with H2O2 for 15 min at room temperature. At least 1×10^7 THP-1 cells were treated with pervanadate with or without blebbistatin at 37° C. for 15 min. Cells were then washed, lysed, and whole-cleared lysate was mixed with anti-NMM-IIA antibody at 4° C. overnight, followed by incubation with Protein G (Invitrogen) for 1 h. For Western blot, whole lysate or IP proteins were separated on 4% to 12% SDS/PAGE gels (NuPAGE 4-12% Bis-Tris, Invitrogen). The proteins were then transferred to a polyvinylidene fluoride (PVDF) membrane with an iBlot Gel Transfer Device (Invitrogen), followed by blocking with 5% nonfat dry milk solution for 1 h. Incubation with primary antibodies was done at 4° C. overnight with 1:1,000β-actin, 1:250 pTyr, and 1:1,000 NMM-IIA antibodies. After washing, the membrane was incubated with 1:2,500 anti-rabbit and 1:1,000 anti-mouse HRP-conjugated IgG antibodies at room temperature for 1 h. […]

[1] = system: CD34+-derived cells (CFU-GM, BFU-E); assay: Colony forming assay; format: cell-based, human
Description: 1000-3000 CD34^+-derived cells were seeded into methylcellulose containing media (MethoCult H4434, StemCell Technologies) supplemented with SCF, GM-CSF, IL-3, Epo. They were cultured for 14 days and colonies were scored at 10× magnification based on the published morphological criteria by StemCell Technoloigies. Colony forming content was normalized per 10,000 cells seeded.

[2] = system: CD34+ cells (CFU-E, BFU-E); assay: Erythroid progenitor number in the presence of Epo (flow cytometry); format: cell-based, human; details: SCF, IL-3 and Epo, 3 days
Description: FIG. 20, comprising FIG. 20A through FIG. 20E, illustrates the functional effects of myosin-II inhibition on HSC differentiation. FIG. 20A (Left) illustrates the enrichment of polyploid MKs by Bleb from CD34^+ cells cultured in SCF and Tpo (n=4 donors). Y-axis represents the ratios between polyploid MKs and 2n+4n MKs. […] Hill coefficient=7.0. FIG. 20A (Middle) illustrates the enrichment of BFU-E relative to CFU-GM in the absence of Epo. CD34^+-derived cells were cultured with SCF and Tpo under Bleb and progenitors were enumerated by colony forming assays. […] FIG. 20A (Right) illustrates the sensitivity of erythroid progenitors against Bleb in the presence of Epo. CD34^+ cells were cultured with SCF, IL-3 and Epo for 4 days before treating with Bleb for 3 days, followed by flow cytometry with Hoechst 33342 to stain for nuclei. BFU-E=CD34^+IL-3R^+CD36^-; CFU-E=CD34^-IL-3R^-CD36^+. Absolute values were normalized to […] initial cell input and fit to dose-response curves: […] FIG. 20B is a graph depicting the limiting dilution analyses showing functional LT-HSCs after myosin inhibition. Human-CD34^+-derived cells were treated with Bleb for 3 days and injected intra-tibally into irradiated NSG mice. […] FIG. 20D illustrates the kinetics of human-CD41^+ plts in circulation were measured after transplantation of human CD34^+-derived cells and normalized by the initial number of CD41^+ cells transplanted. Areas under curves show significant differences between drug-treated and untreated. […] FIG. 20E is a graph showing that human-CD41^+ plts derived in vivo after transplantation into NSG mice show the normal plt size compared to human blood plts. […] Freshly purified bone marrow-derived human CD34^+ cells were obtained from either the Penn Xenograft Core Facility or AllCells (Emeryville, Calif.). Cells from at least 20 different donors were used in this study. Purity of the samples (>98%) was confirmed by flow cytometry with monoclonal antibody against human CD34. All experiments were performed in HSC expansion media ([…], Sigma) supplemented with 1× antibiotics, 20% BIT 9500 Serum Substitute (StemCell Technologies), 2 mM […] (Gibco) and the following human recombinant cytokines: SCF (100 ng/ml) and Tpo (100 ng/ml). In some occasions, the media was also supplemented by G-CSF (100 ng/ml), epidermal growth factor (EGF, 100 ng/ml), transforming growth factor beta 1 (TGF-beta1, 100 ng/ml), erythropoietin (EPO, 1 U/ml) and interleukin-3 (IL-3, 10 ng/ml). All cytokines were purchased from R&D Systems. After cells were cultured for 4 days, they were treated with different doses of cellular contractility inhibitors, including (±)-Blebbistatin (Bleb) (EMD Biosciences) and/or CH-223191 (Sigma) for indicated durations of up to 3 days.

T1 sequence (P35579 2-1960 limits assumed): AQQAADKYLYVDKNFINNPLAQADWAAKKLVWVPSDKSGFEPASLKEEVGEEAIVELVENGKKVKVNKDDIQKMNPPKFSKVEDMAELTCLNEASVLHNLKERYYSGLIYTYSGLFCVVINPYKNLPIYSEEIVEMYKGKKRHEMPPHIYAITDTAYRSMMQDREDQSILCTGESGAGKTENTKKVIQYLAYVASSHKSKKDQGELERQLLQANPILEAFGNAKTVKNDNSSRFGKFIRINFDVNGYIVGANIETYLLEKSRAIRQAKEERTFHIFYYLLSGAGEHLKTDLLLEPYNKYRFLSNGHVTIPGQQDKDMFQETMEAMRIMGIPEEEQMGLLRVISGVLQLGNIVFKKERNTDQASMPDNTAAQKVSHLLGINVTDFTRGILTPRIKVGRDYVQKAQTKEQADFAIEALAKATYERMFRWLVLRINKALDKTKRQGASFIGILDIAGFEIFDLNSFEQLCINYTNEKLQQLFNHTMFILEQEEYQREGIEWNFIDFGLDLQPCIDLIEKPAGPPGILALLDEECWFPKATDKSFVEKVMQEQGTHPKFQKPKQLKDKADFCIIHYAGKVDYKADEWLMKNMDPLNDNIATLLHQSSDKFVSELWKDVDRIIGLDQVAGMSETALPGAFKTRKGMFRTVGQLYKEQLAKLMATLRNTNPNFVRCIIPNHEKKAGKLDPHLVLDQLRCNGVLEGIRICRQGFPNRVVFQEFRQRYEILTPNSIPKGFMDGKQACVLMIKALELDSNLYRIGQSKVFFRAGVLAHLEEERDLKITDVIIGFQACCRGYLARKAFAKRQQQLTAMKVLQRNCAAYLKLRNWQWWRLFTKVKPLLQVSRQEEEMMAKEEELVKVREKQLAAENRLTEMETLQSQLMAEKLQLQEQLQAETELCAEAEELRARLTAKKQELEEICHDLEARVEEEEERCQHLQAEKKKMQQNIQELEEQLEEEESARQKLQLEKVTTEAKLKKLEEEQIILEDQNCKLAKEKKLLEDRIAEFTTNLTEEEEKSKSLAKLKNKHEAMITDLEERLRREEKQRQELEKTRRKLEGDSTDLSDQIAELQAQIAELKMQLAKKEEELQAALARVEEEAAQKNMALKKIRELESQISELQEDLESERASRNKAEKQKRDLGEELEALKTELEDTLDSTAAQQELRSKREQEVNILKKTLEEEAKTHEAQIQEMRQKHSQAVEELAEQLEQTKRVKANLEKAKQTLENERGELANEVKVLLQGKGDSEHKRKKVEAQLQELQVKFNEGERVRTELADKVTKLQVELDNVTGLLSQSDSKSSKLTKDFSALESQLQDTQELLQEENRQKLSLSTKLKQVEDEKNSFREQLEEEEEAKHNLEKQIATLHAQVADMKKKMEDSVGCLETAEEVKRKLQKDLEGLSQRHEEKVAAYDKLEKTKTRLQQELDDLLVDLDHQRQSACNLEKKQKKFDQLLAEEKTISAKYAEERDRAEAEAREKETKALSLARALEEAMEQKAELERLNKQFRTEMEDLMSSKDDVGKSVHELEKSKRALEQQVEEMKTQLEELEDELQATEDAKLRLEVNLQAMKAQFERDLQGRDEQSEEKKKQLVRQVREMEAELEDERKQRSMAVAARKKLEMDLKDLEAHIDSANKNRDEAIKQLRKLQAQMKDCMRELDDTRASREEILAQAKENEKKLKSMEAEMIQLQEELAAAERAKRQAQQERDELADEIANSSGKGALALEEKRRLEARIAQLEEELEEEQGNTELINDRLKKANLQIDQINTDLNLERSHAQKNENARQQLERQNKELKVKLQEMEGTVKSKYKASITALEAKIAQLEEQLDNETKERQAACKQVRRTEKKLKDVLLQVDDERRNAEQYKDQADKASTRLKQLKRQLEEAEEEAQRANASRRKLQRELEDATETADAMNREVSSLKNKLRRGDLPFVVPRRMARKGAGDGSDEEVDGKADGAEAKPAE
T1 sequence (P60660 2-151 partner limits assumed): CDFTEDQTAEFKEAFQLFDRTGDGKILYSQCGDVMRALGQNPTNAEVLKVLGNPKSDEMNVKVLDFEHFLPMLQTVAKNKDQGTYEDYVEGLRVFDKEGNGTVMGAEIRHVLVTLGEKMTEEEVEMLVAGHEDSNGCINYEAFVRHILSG
T1 sequence (O14950 2-172 partner limits assumed): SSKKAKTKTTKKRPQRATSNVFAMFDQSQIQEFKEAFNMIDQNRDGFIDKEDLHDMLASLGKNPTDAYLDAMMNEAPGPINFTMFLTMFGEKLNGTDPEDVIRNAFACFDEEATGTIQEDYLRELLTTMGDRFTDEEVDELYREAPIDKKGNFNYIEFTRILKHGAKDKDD

- pTyr levels (NMM-IIA; THP-1, basal and phosphatase-inhibited conditions): decreases pTyr levels
- phospho-S1943 of NMM-IIA (NMM-IIA; THP-1, detergent-soluble monomer): increases phospho-S1943
- IC50 ([1]; SCF and Tpo, n≥3 donors, read-out: BFU-E IC50): 18.6 µM
- IC50 ([1]; SCF and Tpo, n≥3 donors, read-out: CFU-GM IC50): 10.5 µM
- IC50 ([1]; absence of Epo, n=3 donors, read-out: BFU-E relative to CFU-GM IC50): 10 µM
- IC50 ([2]; read-out: BFU-E 2n IC50): 10.9 µM
- IC50 ([2]; read-out: BFU-E 4n IC50): 13 µM
- IC50 ([2]; read-out: CFU-E 2n IC50): 8.7 µM
- IC50 ([2]; read-out: CFU-E 4n IC50): 12.9 µM
SMILES: Cc1ccc2c(c1)C(=O)C1(O)CCN(c3ccccc3)C1=N2 (racemic) [blebbistatin, (±)-blebbistatin]
- concentration under which BFU-E and CFU-GEMM numbers are not changed [1]: ~15 µM
- concentration of maximum BFU-E relative to CFU-GM ratio ([1]; absence of Epo): 12.5 µM
- increase of BFU-E to CFU-GM ratio ([1]; at 12.5 μM): 2 fold
